Results published in patent US20040254162A1, “Oxazolidinone derivatives as antimicrobials” (priority 2001, published 2004).
≈ marks a conversion by molar mass, not a printed value. Where “and” joins values, the source holds several entries; their conditions need not be identical. Equal values may be shown once. Read-outs that look alike come from different tables or passages of the source.

What was measured:
Format in all cases: cell-based
Fusobacterium necrogenes = experiment: Agar dilution MIC, anaerobes; conditions: single isolate, anaerobic agar dilution; for MIC: Fusobacterium necrogenes, read-out: MIC Fusobacterium necrogenes
[1] = tested on: Peptostreptococcus prevotii; experiment: Agar dilution MIC, anaerobes; conditions: single isolates, anaerobic agar dilution; for MIC: Anaerococcus prevotii, read-out: MIC Peptostreptococcus prevotii
P. acnes = experiment: Agar dilution MIC, anaerobes; conditions: single isolates, anaerobic agar dilution; for MIC: Cutibacterium acnes, read-out: MIC P. acnes
Clostridium perfringens = experiment: microbe, parasite or virus in culture
Porphyromonas gingivalis = experiment: Agar dilution MIC, anaerobes; conditions: single isolate, anaerobic agar dilution; for MIC: Porphyromonas gingivalis, read-out: MIC Porphyromonas gingivalis
[2] = tested on: Peptostreptococcus tetradius; experiment: Agar dilution MIC, anaerobes; conditions: single isolates, anaerobic agar dilution; for MIC: Anaerococcus tetradius, read-out: MIC Peptostreptococcus tetradius
Clostridium difficile = experiment: Agar dilution MIC, anaerobes; conditions: single isolates, anaerobic agar dilution; for MIC: Clostridioides difficile, read-out: MIC Clostridium difficile
[3] = tested on: Porphyromonas asaccharolytica; experiment: Agar dilution MIC, anaerobes; conditions: single isolate, anaerobic agar dilution; for MIC: Porphyromonas asaccharolytica, read-out: MIC Porphyromonas asaccharolytica
anaerobic bacteria = experiment: Agar dilution method for anaerobic bacteria, summary
Clostridium camis = experiment: Agar dilution MIC, anaerobes; conditions: single isolates, anaerobic agar dilution; for MIC: Clostridium, read-out: MIC Clostridium camis
Prevotella intermedia = experiment: Agar dilution MIC, anaerobes; conditions: single isolates, anaerobic agar dilution; for MIC: Prevotella intermedia, read-out: MIC Prevotella intermedia
Prevotella bivia = experiment: Agar dilution MIC, anaerobes; conditions: single isolate, anaerobic agar dilution; for MIC: Prevotella bivia, read-out: MIC Prevotella bivia
Fusobacterium nucleatum = experiment: Agar dilution MIC, anaerobes; conditions: single isolates, anaerobic agar dilution; for MIC: Fusobacterium nucleatum, read-out: MIC Fusobacterium nucleatum
[4] = tested on: Prevotella (Bacteroides) disiens; experiment: Agar dilution MIC, anaerobes; conditions: single isolates, anaerobic agar dilution; for MIC: read-out: MIC Prevotella (Bacteroides) disiens
Bacteroides fragilis = experiment: Agar dilution MIC, anaerobes; conditions: single isolates, anaerobic agar dilution; for MIC: Bacteroides fragilis, read-out: MIC Bacteroides fragilis
Eubacterium leutum = experiment: Agar dilution MIC, anaerobes; conditions: single isolates, anaerobic agar dilution; for MIC: Eubacterium, read-out: MIC Eubacterium leutum
Fusobacterium montiferum = experiment: Agar dilution MIC, anaerobes; conditions: single isolates, anaerobic agar dilution; for MIC: Fusobacterium, read-out: MIC Fusobacterium montiferum
[5] = tested on: Peptostreptococcus micros; experiment: Agar dilution MIC, anaerobes; conditions: Parvimonas micra, single isolates, anaerobic agar dilution; read-out: MIC Peptostreptococcus micros
[6] = tested on: Prevotella melaninogenica; experiment: Agar dilution MIC, anaerobes; conditions: single isolates, anaerobic agar dilution
Fusobacterium varium = experiment: Agar dilution MIC, anaerobes; conditions: single isolates, anaerobic agar dilution
[7] = tested on: Peptostreptococcus asaccharolyticus; experiment: Agar dilution MIC, anaerobes; conditions: single isolates, anaerobic agar dilution
[8] = anaerobes, Wilkins Chalgren agar, 48 hour

Molecule	MIC (Fusobacterium necrogenes) [µg/mL]	MIC [1] [µg/mL]	MIC (P. acnes) [µg/mL]	MIC P. acnes (P. acnes) [µg/mL]	MIC (Porphyromonas gingivalis) [µg/mL]	MIC [2] [µg/mL]	MIC (Clostridium difficile) [µg/mL]	MIC Clostridium difficile (Clostridium difficile) [µg/mL]	MIC [3] [µg/mL]	Geometric Mean (anaerobic bacteria; anaerobes) [µg/mL]	MIC Range (anaerobic bacteria; anaerobes) [µg/mL]	MIC (Clostridium camis) [µg/mL]	MIC (Prevotella intermedia) [µg/mL]	MIC (Prevotella bivia) [µg/mL]	MIC (Fusobacterium nucleatum) [µg/mL]	MIC Fusobacterium nucleatum (Fusobacterium nucleatum) [µg/mL]	MIC [4] [µg/mL]	MIC (Bacteroides fragilis) [µg/mL]	MIC (Eubacterium leutum) [µg/mL]	MIC Fusobacterium montiferum (Fusobacterium montiferum) [µg/mL]	further results
COc1c(N2CCNC(C)C2)c(F)cc2c(=O)c(C(=O)O)cn(C3CC3)c12 (stereo not shown) [Gatifloxacin]	0.5 (≈ 1.33 µM)	0.5 (≈ 1.33 µM)	0.25 (≈ 0.666 µM)	0.125 (≈ 0.333 µM)	0.06 (≈ 0.16 µM)	1 (≈ 2.66 µM)	1 (≈ 2.66 µM)	2 (≈ 5.33 µM)	0.25 (≈ 0.666 µM)	0.659	0.06 to 32	0.25 (≈ 0.666 µM)	0.25 (≈ 0.666 µM)	2 (≈ 5.33 µM)	0.25 (≈ 0.666 µM)	0.5 (≈ 1.33 µM)	1 (≈ 2.66 µM)	1 (≈ 2.66 µM)	0.25 (≈ 0.666 µM)	0.5 (≈ 1.33 µM)	MIC Peptostreptococcus prevotii [1]: 1 µg/mL (≈ 2.66 µM); MIC (Clostridium perfringens; Clostridium perfringens, read-out: MIC Clostridium perfringens, single isolates, anaerobic agar dilution): 1 µg/mL (≈ 2.66 µM); MIC Peptostreptococcus tetradius [2]: 0.5 µg/mL (≈ 1.33 µM); MIC50 (anaerobic bacteria; anaerobes, Wilkins Chalgren agar, 48 hour, read-out: MIC50): 0.5 µg/mL (≈ 1.33 µM); MIC90 (anaerobic bacteria; anaerobes, Wilkins Chalgren agar, 48 hour, read-out: MIC90): 2 µg/mL (≈ 5.33 µM); MIC Eubacterium leutum (Eubacterium leutum): 0.5 µg/mL (≈ 1.33 µM); MIC (Fusobacterium montiferum): 0.25 µg/mL (≈ 0.666 µM)
C[C@@H](O)[C@H]1C(=O)N2C(C(=O)O)=C(SCCN=CN)C[C@H]12 [Imipenem]	0.25 (≈ 0.835 µM)	≤ 0.016	≤ 0.016	–	≤ 0.016	0.03 (≈ 0.1 µM)	4 (≈ 13.4 µM)	–	0.03 (≈ 0.1 µM)	0.084	0.008 to 4	0.06 (≈ 0.2 µM)	≤ 0.016	0.03 (≈ 0.1 µM)	≤ 0.016	–	–	–	0.25 (≈ 0.835 µM)	–	MIC [5]: 0.03 µg/mL (≈ 0.1 µM); MIC ([6]; Prevotella melaninogenica, read-out: MIC Prevotella melaninogenica): ≤ 0.016 µg/mL; MIC50 (anaerobic bacteria; 48 h): 0.064 µg/mL (≈ 0.214 µM); MIC90 (anaerobic bacteria; 48 h): 1 µg/mL (≈ 3.34 µM); MIC (Fusobacterium varium; Fusobacterium varium, read-out: MIC Fusobacterium varium): 0.5 µg/mL (≈ 1.67 µM); MIC Fusobacterium varium (Fusobacterium varium): 1 µg/mL (≈ 3.34 µM); MIC Eubacterium leutum (Eubacterium leutum): 0.5 µg/mL (≈ 1.67 µM)
COc1c(N2C[C@@H]3CCCN[C@@H]3C2)c(F)cc2c(=O)c(C(=O)O)cn(C3CC3)c12 [Moxifloxacin]	1 (≈ 2.49 µM)	0.25 (≈ 0.623 µM)	0.25 (≈ 0.623 µM)	0.125 (≈ 0.311 µM)	0.03 (≈ 0.0747 µM)	0.5 (≈ 1.25 µM)	–	–	0.5 (≈ 1.25 µM)	–	–	0.25 (≈ 0.623 µM)	0.5 (≈ 1.25 µM)	–	0.125 (≈ 0.311 µM)	0.25 (≈ 0.623 µM)	0.25 (≈ 0.623 µM)	0.25 (≈ 0.623 µM)	0.5 (≈ 1.25 µM)	0.5 (≈ 1.25 µM)	MIC Prevotella (Bacteroides) disiens [4]: 0.5 µg/mL (≈ 1.25 µM); MIC Bacteroides fragilis (Bacteroides fragilis): 0.5 µg/mL (≈ 1.25 µM); MIC ([7]; Peptoniphilus asaccharolyticus): 0.125 µg/mL (≈ 0.311 µM); MIC Peptostreptococcus asaccharolyticus [7]: 0.25 µg/mL (≈ 0.623 µM); MIC (Fusobacterium montiferum): 0.25 µg/mL (≈ 0.623 µM)
Teicoplanin	–	–	–	0.25	–	–	–	0.25	–	2.04	0.03 to 32	–	–	–	–	>16	–	–	–	>16	MIC Fusobacterium necrogenes (Fusobacterium necrogenes): >16 µg/mL; MIC Clostridium perfringens (Clostridium perfringens; single isolates, anaerobic agar dilution): <=.06 μg/ml; MIC Porphyromonas gingivalis (Porphyromonas gingivalis): <=.06 μg/ml; MIC Prevotella melaninogenica [6]: 2 µg/mL and 4 µg/mL; MIC Porphyromonas asaccharolytica [3]: 0.125 µg/mL; MIC50 (anaerobic bacteria; [8]): 2 µg/mL; MIC90 (anaerobic bacteria; [8]): 32 µg/mL; MIC Fusobacterium varium (Fusobacterium varium): >16 µg/mL; MIC Clostridium camis (Clostridium camis): <=.06 μg/ml; MIC Prevotella intermedia (Prevotella intermedia): 0.5 µg/mL; MIC Prevotella bivia (Prevotella bivia): 1 µg/mL; MIC Prevotella (Bacteroides) disiens [4]: 16 µg/mL and >16 µg/mL; MIC Bacteroides fragilis (Bacteroides fragilis): >16 µg/mL; MIC Peptostreptococcus asaccharolyticus [7]: 0.125 µg/mL
